Laboratory results published in US10604512B2, “3-(1H-indol-2-yl)-1H-indazoles and therapeutic uses thereof” (Samumed, LLC, priority 2015, dated 2020).

What was measured:
Format in all cases: cell-based
SW480 colon cancer cells = test: Cell viability assay (CellTiter-Blue) in SW480 colon cancer cells; conditions: Homo sapiens, 96 h, four days; for inhibition at 10 µM: given where EC50 >10 μM, read-out: percent inhibition at 10 μM; for EC50: CellTiter-Blue
In short: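 SW480 cells (~2×10^3 per well) were exposed to compound for four days at 37 °C/5% CO2, using 8-point 1:3 dilutions from 10 μM to 0.0045 μM in duplicate. Viability was read by resazurin reduction (CellTiter-Blue, ~3 h, Ex 560/Em 590 nm). EC50 came from non-linear regression; above 10 μM, percent inhibition at 10 μM is given.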

[1] = system: Wnt activity (Sp5-Luc reporter, TCF/LEF binding sites) in SW480 colon carcinoma cells; test: Screening assay for Wnt activity: Sp5-Luc reporter gene assay in stably transduced SW480 colon carcinoma cells; conditions: Homo sapiens; for inhibition at 10 µM: given where EC50 >10 μM, read-out: percent inhibition at 10 μM; for EC50: overnight incubation, 10-point curve from 10 μM
In short: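 SW480 cells stably transduced with a luciferase reporter driven by an Sp5 promoter of eight TCF/LEF sites were plated at 4,000 cells/well in 1% FBS medium. They were exposed overnight at 37° C to a 10-point 1:3 dilution series from 10 μM (0.1% DMSO). Luminescence was normalized to DMSO for four-parameter EC50, or percent inhibition at 10 μM.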

[2] = system: Primary human fibroblasts derived from IPF patients (LL29 cells) treated with TGF-β1; test: Inhibition of the fibrotic process: αSMA staining in TGF-β1-treated primary human fibroblasts from IPF patients (LL29 cells); conditions: Fibroblast, 96 h; for EC50: % αSMA-positive LL29 cells, TGF-β1 20 ng/mL, 4 days; for inhibition at 10 µM: given where EC50 >10 μM, αSMA, LL29 cells, TGF-β1, 4 days, read-out: percent inhibition at 10 μM
In short: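 LL29 IPF-patient fibroblasts in 1% FBS stimulated with TGF-β1 (20 ng/mL) and compound (10 μM–1.87 nM, 0.1% DMSO) for 4 days at 37 °C. SYTOX-positive cells excluded; % αSMA-positive cells imaged, normalized to TGF-β1/DMSO wells; EC50 by nonlinear regression, else % inhibition at 10 μM.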

Row | SMILES | EC50 (SW480 colon cancer cells) [µM] | EC50 [1] [µM] | inhibition at 10 µM (SW480 colon cancer cells) [%] | inhibition at 10 µM [1] [%] | EC50 [2] [µM] | inhibition at 10 µM [2] [%]
1 | CS(=O)(=O)NCc1cc(F)cc(-c2cccc3[nH]c(-c4n[nH]c5ccc(-c6ccncc6)cc45)cc23)c1 [Compound 494, N-(3-Fluoro-5-(2-(5-(pyridin-4-yl)-1H-indazol-3-yl)-1H-indol-4-yl)benzyl) methane sulfonamide] | > 10 | 3.9 | 22.3 |  | > 10 | 10.4
2 | c1ccc(-c2cccc3[nH]c(-c4n[nH]c5ccc(-c6cncc(CN7CCCC7)c6)cc45)cc23)nc1 [Compound 154, 3-(4-(Pyridin-2-yl)-1H-indol-2-yl)-5-(5-(pyrrolidin-1-ylmethyl)pyridin-3-yl)-1H-indazole] | 2.79 | 0.49 |  |  | 0.222 | 
3 | O=C(Nc1cncc(-c2ccc3[nH]nc(-c4cc5ccccc5[nH]4)c3c2)c1)C1CCCCC1 [Compound 275, N-(5-(3-(1H-Indol-2-yl)-1H-indazol-5-yl)pyridin-3-yl) cyclohexanecarboxamide] | > 10 | 0.588 | 9.5 |  | > 10 | 43.7
4 | CN(C)Cc1cncc(-c2ccc3[nH]nc(-c4cc5c(N6CCCCC6)cccc5[nH]4)c3c2)c1 [Compound 181, N,N-Dimethyl-1-(5-(3-(4-(piperidin-1-yl)-1H-indol-2-yl)-1H-indazol-5-yl)pyridin-3-yl)methanamine] | 4.16 | 0.575 |  |  | 4.82 | 
5 | Cc1ccncc1-c1ccc2[nH]nc(-c3cc4c(-c5ccncc5)cccc4[nH]3)c2c1 [Compound 117, 5-(4-Methylpyridin-3-yl)-3-(4-(pyridin-4-yl)-1H-indol-2-yl)-1H-indazole] | > 10 | > 10 | 20.9 | 19.6 | > 10 | 17.7
6 | c1ccc(-c2cccc3[nH]c(-c4n[nH]c5ccc(-c6ccncc6)cc45)cc23)nc1 [Compound 158, 3-(4-(Pyridin-2-yl)-1H-indol-2-yl)-5-(pyridin-4-yl)-1H-indazole] | > 10 | 4.12 | 36.9 |  | 0.627 | 
7 | Cc1ccncc1-c1ccc2[nH]nc(-c3cc4c(-c5ccccn5)cccc4[nH]3)c2c1 [Compound 145, 5-(4-Methylpyridin-3-yl)-3-(4-(pyridin-2-yl)-1H-indol-2-yl)-1H-indazole] | > 10 | 1.9 | 36.7 |  | 2.94 | 
8 | c1cncc(-c2ccc3[nH]nc(-c4cc5ccccc5[nH]4)c3c2)c1 [Compound 256, 3-(1H-Indol-2-yl)-5-(pyridin-3-yl)-1H-indazole] | > 10 | 0.018 | 4.7 |  | 9.77 | 
9 | CN1CCN(c2cccc3[nH]c(-c4n[nH]c5ccc(-c6cncc(NC(=O)C7CCCC7)c6)cc45)cc23)CC1 [Compound 246, N-(5-(3-(4-(4-Methylpiperazin-1-yl)-1H-indol-2-yl)-1H-indazol-5-yl)pyridin-3-yl)cyclopentanecarboxamide] | 2.99 | 1.25 |  |  | 2.56 | 
10 | c1ccc(-c2ccc3[nH]nc(-c4cc5c(-c6ccoc6)cccc5[nH]4)c3c2)nc1 [Compound 336, 3-(4-(Furan-3-yl)-1H-indol-2-yl)-5-(pyridin-2-yl)-1H-indazole] | 3.1 | 3.91 |  |  | > 10 | 0

More lines, main results first:

Row | EC50 (SW480 colon cancer cells) [µM] | EC50 [1] [µM] | SMILES | inhibition at 10 µM (SW480 colon cancer cells) [%] | inhibition at 10 µM [1] [%] | EC50 [2] [µM] | inhibition at 10 µM [2] [%]
11 | > 10 | > 10 | O=C(Cc1ccccc1)Nc1cncc(-c2ccc3[nH]nc(-c4cc5c(-c6ccncc6)cccc5[nH]4)c3c2)c1 [Compound 122, 2-Phenyl-N-(5-(3-(4-(pyridin-4-yl)-1H-indol-2-yl)-1H-indazol-5-yl)pyridin-3-yl)acetamide] | 7.8 | 45.5 | > 10 | 0
12 | > 10 | 1.67 | CCCCC(=O)Nc1cncc(-c2ccc3[nH]nc(-c4cc5c(-c6ccccn6)cccc5[nH]4)c3c2)c1 [Compound 159, N-(5-(3-(4-(Pyridin-2-yl)-1H-indol-2-yl)-1H-indazol-5-yl)pyridin-3-yl) pentanamide] | 22.3 |  | > 10 | 45.6
13 | > 10 | 0.275 | Fc1cccc(-c2cccc3[nH]c(-c4n[nH]c5ccc(-c6cccnc6)cc45)cc23)c1 [Compound 4, 3-(4-(3-Fluorophenyl)-1H-indol-2-yl)-5-(pyridin-3-yl)-1H-indazole] | 3.7 |  | > 10 | 10.4
14 | > 10 | 0.5 | c1cncc(-c2ccc3[nH]nc(-c4cc5c(-c6cccnc6)cccc5[nH]4)c3c2)c1 [Compound 88, 5-(Pyridin-3-yl)-3-(4-(pyridin-3-yl)-1H-indol-2-yl)-1H-indazole] | 21.9 |  | > 10 | 17.3
15 | 1.09 | 0.908 | O=C(Nc1cncc(-c2ccc3[nH]nc(-c4cc5ncccc5[nH]4)c3c2)c1)c1ccccc1 [Compound 515, N-(5-(3-(1H-Pyrrolo[3,2-b]pyridin-2-yl)-1H-indazol-5-yl)pyridin-3-yl) benzamide] |  |  | > 10 | 0
16 | > 10 | 0.16 | CCC(=O)Nc1cncc(-c2ccc3[nH]nc(-c4cc5ccccc5[nH]4)c3c2)c1 [Compound 253, N-(5-(3-(1H-Indol-2-yl)-1H-indazol-5-yl)pyridin-3-yl)propionamide] | 13.6 |  | 2.31 | 
17 | > 10 | 1.06 | O=C(Nc1cncc(-c2ccc3[nH]nc(-c4cc5c(-c6ccccc6F)cccc5[nH]4)c3c2)c1)C1CCCC1 [Compound 78, N-(5-(3-(4-(2-Fluorophenyl)-1H-indol-2-yl)-1H-indazol-5-yl)pyridin-3-yl) cyclopentanecarboxamide] | 8.3 |  | > 10 | 3.7
18 | 0.462 | 0.135 | O=C(Nc1cncc(-c2ccc3[nH]nc(-c4cc5c(-c6ccncc6)cccc5[nH]4)c3c2)c1)C1CC1 [Compound 132, N-(5-(3-(4-(Pyridin-4-yl)-1H-indol-2-yl)-1H-indazol-5-yl)pyridin-3-yl) cyclopropanecarboxamide] |  |  | 0.076 | 
19 | 9.67 | 0.99 | c1cncc(-c2cccc3[nH]c(-c4n[nH]c5ccc(-c6cncnc6)cc45)cc23)c1 [Compound 111, 3-(4-(Pyridin-3-yl)-1H-indol-2-yl)-5-(pyrimidin-5-yl)-1H-indazole] |  |  | 0.857 | 
20 | > 10 | 4.18 | CCNCc1cncc(-c2ccc3[nH]nc(-c4cc5c(-c6ccccc6F)cccc5[nH]4)c3c2)c1 [Compound 62, N-((5-(3-(4-(2-Fluorophenyl)-1H-indol-2-yl)-1H-indazol-5-yl)pyridin-3-yl)methyl)ethanamine] | 44.5 |  | 7.64 | 
21 | 0.18 | 0.075 | CC(C)CC(=O)Nc1cncc(-c2ccc3[nH]nc(-c4cc5c(-c6ccsc6)cccc5[nH]4)c3c2)c1 [Compound 282, 3-Methyl-N-(5-(3-(4-(thiophen-3-yl)-1H-indol-2-yl)-1H-indazol-5-yl)pyridin-3-yl)butanamide] |  |  | > 10 | 34.9
22 | > 10 | 4.26 | CC(C)(C)CC(=O)Nc1cncc(-c2ccc3[nH]nc(-c4cc5c(-c6ccccc6F)cccc5[nH]4)c3c2)c1 [Compound 72, N-(5-(3-(4-(2-Fluorophenyl)-1H-indol-2-yl)-1H-indazol-5-yl)pyridin-3-yl)-3,3-dimethylbutanamide] | 16.2 |  | > 10 | 0
23 | 5.96 | > 10 | Cc1ncc(-c2ccc3[nH]nc(-c4cc5c(-c6ccncc6)cccc5[nH]4)c3c2)n1C [Compound 601, 5-(1,2-Dimethyl-1H-imidazol-5-yl)-3-(4-(pyridin-4-yl)-1H-indol-2-yl)-1H-indazole] |  | 32.4 | 4.19 | 
24 | > 10 | 1.78 | Fc1ccc(-c2cccc3[nH]c(-c4n[nH]c5ccc(-c6cncnc6)cc45)cc23)cc1 [Compound 55, 3-(4-(4-Fluorophenyl)-1H-indol-2-yl)-5-(pyrimidin-5-yl)-1H-indazole] | 26.3 |  | 6.11 | 
25 | > 10 | 0.125 | CCCC(=O)Nc1cncc(-c2ccc3[nH]nc(-c4cc5c(-c6cccc(F)c6)cccc5[nH]4)c3c2)c1 [Compound 17, N-(5-(3-(4-(3-Fluorophenyl)-1H-indol-2-yl)-1H-indazol-5-yl)pyridin-3-yl) butyramide] | 12.9 |  | > 10 | 0
